Test results: the CheMixHub drug solubility set

Test: xn = mol fraction of the nth substance listed, in the solute-free solvent

CC(C)C(=O)Nc1ccc([N+](=O)[O-])c(C(F)(F)F)c1 + CCO + O
solubility (g/100 g solution)
Conditions	278.15 K	283.15 K	288.15 K	293.15 K	298.15 K	303.15 K	308.15 K	313.15 K	318.15 K	323.15 K
x2 = 0.04165	0.00282	0.00366	0.00476	0.00623	0.00797	0.0102	0.0129	0.0162	0.0203	0.0251
x2 = 0.08908	0.0183	0.0236	0.0305	0.0388	0.0499	0.0632	0.0793	0.0976	0.122	0.148
x2 = 0.1436	0.0774	0.0967	0.124	0.158	0.199	0.246	0.305	0.377	0.462	0.568
x2 = 0.2068	0.289	0.358	0.447	0.563	0.694	0.851	1.04	1.26	1.54	1.86
x2 = 0.2812	0.894	1.09	1.34	1.62	1.93	2.32	2.77	3.31	3.89	4.58
x2 = 0.3698	2.17	2.59	3.2	3.88	4.59	5.48	6.38	7.52	8.74	10.2
x2 = 0.4772	4.83	5.78	6.84	8.03	9.49	11	12.8	14.7	16.8	19.1
x2 = 0.6101	8.9	10.5	12.3	14.3	16.5	19	21.5	24.4	27.2	30.6
x2 = 0.7788	13.7	15.9	18.4	21.1	24.4	27.7	30.7	34.4	38.1	41.7

Cc1ccc(-c2cc(C(F)(F)F)nn2-c2ccc(S(N)(=O)=O)cc2)cc1 + CN1CCCC1=O + CCCO
solubility (g/100 g solution)
Conditions	x2 = 0.06311	x2 = 0.1316	x2 = 0.2062	x2 = 0.2878	x2 = 0.3774	x2 = 0.4763	x2 = 0.5858	x2 = 0.708	x2 = 0.8451
293.15 K	5.07	5.58	6.56	6.91	7.25	9.83	11.2	13.6	16.9
298.15 K	5.96	6.26	6.96	7.72	8.23	10.3	12.2	14.6	18
303.15 K	6.68	7.1	7.85	8.74	9.16	11.9	13.4	16.3	19.6
308.15 K	7.49	8.17	9.06	9.84	10	12.7	14.5	17.3	21.1
313.15 K	8.6	9.28	9.59	10.3	10.6	13.5	15.8	19	22.6

COC(=O)Nc1nc2ccccc2[nH]1 + CN(C)C=O + O
solubility (g/100 g solution)
Conditions	278.15 K	283.15 K	288.15 K	293.15 K	298.15 K	303.15 K	308.15 K	313.15 K	318.15 K
x2 = 0.02669	0.00314	0.0037	0.00435	0.00513	0.00608	0.0069	0.00793	0.00907	0.0104
x2 = 0.05816	0.0129	0.0149	0.017	0.0196	0.0227	0.0252	0.0284	0.0319	0.0358
x2 = 0.09552	0.0278	0.0343	0.0397	0.045	0.0511	0.0563	0.0627	0.0696	0.0773
x2 = 0.1411	0.0542	0.0604	0.0678	0.076	0.0856	0.0938	0.103	0.114	0.126
x2 = 0.1978	0.0795	0.0881	0.098	0.109	0.122	0.133	0.147	0.161	0.175
x2 = 0.2702	0.108	0.12	0.133	0.147	0.163	0.177	0.194	0.211	0.23
x2 = 0.3643	0.144	0.159	0.174	0.192	0.212	0.23	0.25	0.271	0.294
x2 = 0.4967	0.186	0.205	0.223	0.244	0.268	0.29	0.315	0.339	0.365
x2 = 0.6912	0.219	0.24	0.259	0.282	0.308	0.333	0.359	0.387	0.416

NC(N)=C([N+](=O)[O-])[N+](=O)[O-] + CS(C)=O + CCC(C)=O
solubility (g/100 g solution)
Conditions	293.15 K	298.15 K	303.15 K	308.15 K	313.15 K	318.15 K	323.15 K	328.15 K	333.15 K
x2 = 0.1228	2.96	3.02	3.23	3.43	3.66	3.88	4.15	4.41	4.69
x2 = 0.2395	6.6	7.02	7.36	7.71	8.11	8.5	8.9	9.32	9.81
x2 = 0.3506	10.8	11.4	11.7	12.2	12.7	13.1	13.6	14.2	14.8
x2 = 0.4565	14.7	15.3	15.7	16.2	16.7	17.2	17.8	18.4	19
x2 = 0.5575	18.4	19.1	19.6	20	20.6	21.1	21.7	22.4	23
x2 = 0.6539	21.6	22.1	22.7	23.2	23.8	24.4	25	25.6	26.4
x2 = 0.7462	24.1	24.8	25.3	25.7	26.3	26.9	27.5	28.1	28.8
x2 = 0.8344	26.2	26.7	27.2	27.7	28.2	28.8	29.4	30	30.7
x2 = 0.9189	27.9	28.7	29.2	29.6	30.1	30.6	31.2	31.9	32.5

CC(C)C(=O)Nc1ccc([N+](=O)[O-])c(C(F)(F)F)c1 + CC(C)=O + CC(C)O
solubility (g/100 g solution)
Conditions	278.15 K	283.15 K	288.15 K	293.15 K	298.15 K	303.15 K	308.15 K	313.15 K	318.15 K	323.15 K
x2 = 0.1	25.4	27.7	30.1	33.4	37.2	41	44.5	48.4	53.4	59
x2 = 0.2	31.8	34.1	37	40.1	44.1	48	52	55.4	58.7	61.9
x2 = 0.3	35.7	39	42	45.1	48.5	52.2	55.4	58.4	61.4	64.6
x2 = 0.4	38.8	42.4	45.5	48.8	52.2	55.7	59.1	62.2	65	68
x2 = 0.5	42.2	45.7	48.9	52.2	55.5	58.8	61.7	65	68.2	71.2
x2 = 0.6	44.1	47.5	51.6	54.6	57.9	61.1	63.8	67.1	70.5	73.9
x2 = 0.7	47.6	50.5	54.4	57.4	60.6	64	66.9	70.1	73.3	76.3
x2 = 0.8	49.3	52.8	56.5	59.7	62.9	66.1	68.9	72	75.2	78.1
x2 = 0.9	51	54.5	58	61.3	64.7	67.9	71.1	74	76.8	79.6
